# Values joined by “and” are separate entries in the source; they are usually repeats but may differ in a detail not shown here. Equal entries are not always repeated. Positions of bridges follow the written chain, without caps; N, C: chain ends. Non-standard residues stand in square brackets, D forms with d. Residues, ends and D or L forms follow the SMILES beside them.
# Test system: B16/F1 murine melanoma cells
# Assay: Cellular internalization and efflux
# Format: cell-based
# Design: concentration or dose not given beside the values
# Conditions: for Activity internalized in the B16/F1 cells: 25° C.; for Cellular efflux: activity remained inside the cells: 2 h after incubating cells in culture medium
# Experimental: Cellular internalization and efflux of ^99mTc-RGD-Lys-(Arg^11)CCMSH was evaluated in B16/F1 cells as previously described by Miao et al (27). After being washed once with binding media, B16/F1 cells in 24-well cell culture plates were incubated at 25° C. for 20, 40, 60, 90 and 120 min (n=4) in the presence of approximately 200,000 cpm of HPLC purified ^99mTc-RGD-Lys-(Arg^11)CCMSH. After incubation, the reaction media were aspirated and the cells were rinsed twice with 0.5 ml of ice-cold pH 7.4, 0.2% BSA/0.01 M PBS. Cellular internalization of ^99mTc-RGD-Lys-(Arg^11)CCMSH was assessed by washing the cells with acidic buffer [40 mM sodium acetate (pH 4.5) containing 0.9% NaCl and 0.2% BSA] to remove the membrane-bound radioactivity. The remaining internalized radioactivity was obtained by lysing the cells with 0.5 ml of 1 N NaOH for 5 min. Membrane-bound and internalized ^99mTc activities were counted in a gamma counter. Cellular efflux of ^99mTc-RGD-Lys-(Arg^11)CCMSH was determined by incubating B16/F1 cells with ^99mTc-RGD-Lys-(Arg^11)CCMSH for 2 h at 25° C., removing non-specific-bound radioactivity with 2×0.5 ml of ice-cold pH 7.4, 0.2% BSA/0.01 M PBS rinse, and monitoring radioactivity released into cell culture media. At time points of […], the radioactivities in media, on cell surface and in cells were separately collected and counted in a gamma counter.
# Cellular internalization and efflux of ^99mTc-RGD-Arg-(Arg^11)CCMSH was evaluated in B16/F1 cells as previously described by Yang et al (17). After being washed once with binding medium, B16/F1 cells in 24-well cell culture plates were incubated at 25° C. for 20, 40, 60, 90 and 120 min (n=3) in the presence of approximately 200,000 cpm of HPLC purified 99″Tc-RGD-Arg-(Arg^11)CCMSH. After incubation, the reaction medium was aspirated and the cells were rinsed twice with 0.5 mL of ice-cold pH 7.4, 0.2% BSA/0.01 M PBS. Cellular internalization of ^99mTc-RGD-Arg-(Arg^11)CCMSH was assessed by washing the cells with acidic buffer [40 mM sodium acetate (pH 4.5) containing 0.9% NaCl and 0.2% BSA] to remove the membrane-bound radioactivity. The remaining internalized radioactivity was obtained by lysing the cells with 0.5 mL of 1 N NaOH for 5 min. Membrane-bound and internalized ^99mTc activities were counted in a gamma counter. Cellular efflux of ^99mTc-RGD-Arg-(Arg^11)CCMSH was determined by incubating B16/F1 cells with ^99mTc-RGD-Arg-(Arg^11)CCMSH for 2 h at 25° C., removing non-specific-bound radioactivity with 2×0.5 mL of ice-cold pH 7.4, 0.2% BSA/0.01 M PBS rinse, and monitoring radioactivity released into cell culture medium. At time points of 20, 40, 60, 90 and 120 min, the radioactivities on cell surface and in cells were separately collected and counted in a gamma counter.
Structure (SMILES),Activity internalized in the B16/F1 cells (20 min post incubation) [%],Cellular efflux: activity remained inside the cells,Activity internalized in the B16/F1 cells (2 h incubation) [%]
"CC(C)[C@H](NC(=O)[C@@H]1CCCN1C(=O)[C@H](CCCNC(=N)N)NC(=O)[C@H](CS)NC(=O)[C@H](Cc1c[nH]c2ccccc12)NC(=O)[C@H](CCCNC(=N)N)NC(=O)[C@@H](Cc1ccccc1)NC(=O)[C@H](Cc1c[nH]cn1)NC(=O)[C@H](CCC(=O)O)NC(=O)[C@H](CS)NC(=O)[C@H](CS)NC(=O)[C@H](CCCNC(=N)N)NC(=O)[C@@H]1CC(=O)N[C@@H](CCCNC(=N)N)C(=O)NCC(=O)N[C@@H](CC(=O)O)C(=O)N[C@H](Cc2ccc(O)cc2)C(=O)N1)C(N)=O [^99mTc-RGD-Arg-(Arg^11)CCMSH, metal not drawn] (RGD[dY]DRCCEH[dF]RWCRPV-NH2; lactam N-5)",62.35±4.08,58.99±2.03%,81.36±0.96
"CC(C)[C@H](NC(=O)[C@@H]1CCCN1C(=O)[C@H](CCCNC(=N)N)NC(=O)[C@H](CS)NC(=O)[C@H](Cc1c[nH]c2ccccc12)NC(=O)[C@H](CCCNC(=N)N)NC(=O)[C@@H](Cc1ccccc1)NC(=O)[C@H](Cc1c[nH]cn1)NC(=O)[C@H](CCC(=O)O)NC(=O)[C@H](CS)NC(=O)[C@H](CS)NC(=O)[C@H](CCCCN)NC(=O)[C@@H]1CC(=O)N[C@@H](CCCNC(=N)N)C(=O)NCC(=O)N[C@@H](CC(=O)O)C(=O)N[C@H](Cc2ccc(O)cc2)C(=O)N1)C(N)=O [^99mTc-RGD-Lys-(Arg^11)CCMSH, metal not drawn] (RGD[dY]DKCCEH[dF]RWCRPV-NH2; lactam N-5)",–,68.57±3.77% and ~69%,85.93±1.22
